Reference: ChEMBL document CHEMBL3638506, “Conjugated 3-(indolyl)- and 3-(azaindolyl)-4-arylmaleimide compounds and their use in tumor treatment” (2015)

Target: Glycogen synthase kinase-3 beta (Homo sapiens, UniProt P49841)
Experiment: Kinase Assay: The effect of test compounds on the activity of the protein kinases GSK-3β, VEGFR-2 and FLT-3 was evaluated based on half maximal inhibitory concentration (IC50) values determined by Millipore UK Ltd; Gemini Crescent; Dundee Technology Park; Dundee DD2 1SW; UK (IC50Profiler). Detailed protocols can be found at: www.millipore.com/drugdiscovery/dd3/assayprotocols.

Chain of Glycogen synthase kinase-3 beta (P49841 whole entry): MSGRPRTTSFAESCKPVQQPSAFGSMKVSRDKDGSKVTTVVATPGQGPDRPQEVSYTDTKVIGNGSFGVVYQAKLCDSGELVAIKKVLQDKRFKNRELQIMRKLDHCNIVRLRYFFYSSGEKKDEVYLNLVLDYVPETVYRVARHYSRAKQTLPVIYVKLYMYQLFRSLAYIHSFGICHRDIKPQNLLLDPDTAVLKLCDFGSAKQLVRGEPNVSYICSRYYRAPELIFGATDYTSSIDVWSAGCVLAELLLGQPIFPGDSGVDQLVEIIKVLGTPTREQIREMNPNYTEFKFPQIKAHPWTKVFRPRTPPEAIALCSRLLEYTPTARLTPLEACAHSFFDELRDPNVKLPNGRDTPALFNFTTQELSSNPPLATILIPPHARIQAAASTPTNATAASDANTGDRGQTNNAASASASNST

IC50: 3.39 µM
SMILES: COc1cc(C2=C(c3cn(CCCO)c4ccccc34)C(=O)NC2=O)cc(OC)c1OC
